Results on 4 compounds are retold here after article PMC8802628, “Selective activation of PFKL suppresses the phagocytic oxidative burst” (Cell, 2021).

One test has as its target T1, PFKL (Homo sapiens, UniProt P17858).
T1 construct: made in house; host or cells: Sf9 insect cells (baculovirus, Bac-to-Bac)
T1 sequence (P17858 1-780): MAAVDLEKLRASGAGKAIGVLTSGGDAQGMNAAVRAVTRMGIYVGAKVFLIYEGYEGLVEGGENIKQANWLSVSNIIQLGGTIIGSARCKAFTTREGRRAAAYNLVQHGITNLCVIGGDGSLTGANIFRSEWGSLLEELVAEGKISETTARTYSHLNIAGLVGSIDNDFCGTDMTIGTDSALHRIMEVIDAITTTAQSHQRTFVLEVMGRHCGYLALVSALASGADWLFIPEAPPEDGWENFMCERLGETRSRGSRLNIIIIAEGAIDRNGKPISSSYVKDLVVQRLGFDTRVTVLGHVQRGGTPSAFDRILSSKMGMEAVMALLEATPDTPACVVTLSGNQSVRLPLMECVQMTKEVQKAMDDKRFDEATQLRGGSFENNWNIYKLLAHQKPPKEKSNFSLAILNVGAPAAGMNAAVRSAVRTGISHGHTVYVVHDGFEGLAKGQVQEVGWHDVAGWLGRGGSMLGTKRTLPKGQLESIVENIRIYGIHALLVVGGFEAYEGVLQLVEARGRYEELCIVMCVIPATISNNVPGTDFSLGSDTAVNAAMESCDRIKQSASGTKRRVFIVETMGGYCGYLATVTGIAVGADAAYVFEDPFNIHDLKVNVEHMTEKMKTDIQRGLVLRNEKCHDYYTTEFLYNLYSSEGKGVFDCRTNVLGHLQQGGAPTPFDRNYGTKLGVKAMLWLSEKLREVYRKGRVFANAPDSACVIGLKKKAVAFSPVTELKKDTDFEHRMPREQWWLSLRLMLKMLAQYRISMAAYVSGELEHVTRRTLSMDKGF
The test can be described thus: Recombinant PFKL activity assay (relief of ATP inhibition). Format: biochemical. An excerpt: (§1) Recombinant N-terminal His-tagged human PFKL (NP_002617), PFKM (NP_000280), and PFKP (NM_002627.4) were generated as described ([Webb et al., 2015], [2017]). Point mutants of PFK1 were generated using the QuikChange Lightning kit (Aligent).
(§2) His-tagged PFK1 was expressed and purified as described with slight modifications ([Webb et al., 2015], [2017]). Briefly, baculovirus was generated using the Bac-to-Bac Expression system (Invitrogen). PFK1 was expressed in 2-5 × 10^6 sf9 cells at a multiplicity of infection of two for 48 h. Cells were lysed in 20 mM HEPES, pH 7.5, 80 mM potassium phosphate, 1 mM 2-mercapentoethanol, 10% glycerol, 10 mM imidazole, and EDTA-free Protease Inhibitor Cocktail (Abcam) with a Dounce homogenizer. The soluble lysate was incubated with HisPur cobalt resin (ThermoFisher Scientific). The resin was washed with 5 bead volumes lysis buffer, 10 bead volumes lysis buffer containing 2 M NaCl, and 5 further bead volumes lysis buffer. PFK1 was eluted in lysis buffer containing 100 mM imidazole. Fractions containing protein were pooled, passed over a desalting column equilibrated in freezing buffer [20 mM HEPES pH 7.5, 1 mM DTT, 500 μM ammonium sulfate, 5% glycerol, 1 mM ATP, and 100 μM EDTA] and concentrated using an Amicon Ultracel-30K Centrifugal Filter Unit (MilliporeSigma). Protein was quantified using a Bradford Protein Assay kit (ThermoFisher Scientific), and aliquotes frozen in liquid nitrogen for storage at −80°C.
(§3) PFK1 activity was determined using the rate of FBP production via an auxiliary enzyme assay adapted to a 96-well format ([Brüser et al., 2012]; [Webb et al., 2015]). The auxiliary enzymes aldolase, triosephosphate isomerase, and glycerol phosphate dehydrogenase were purchased from MilliporeSigma as ammonium sulfate slurries and desalted using an Amicon Ultracel-10K Centrifugal Filter Unit. For assays containing FBP, the rate of ADP production was determined using the auxiliary enzymes pyruvate kinase (PK) and lactate dehydrogenase (LDH) (MilliporeSigma) in a buffer containing 250 μM phosphoenolpyruvic acid, […] NADH, 50 mM HEPES pH 7.5, 100 mM KCl, 1 mM DTT, and effector concentrations as described in the text. The temperature was equilibrated to 25°C for 5 min before initiating the reaction 10 mM MgCl2. Absorbance at 340 nm was measured using a Varioskan LUX Multimode microplate reader (ThermoFisher). Kinetic parameters were generated by nonlinear regression analysis using Prism (GraphPad Software) and are the mean of a minimum of three measurements from two independent preparations of protein. One unit of activity was defined as the amount of enzyme that catalyzed the formation of 1 μmol of fructose 1,6-bisphosphate per min at 25°C. Assays for PFKM were performed at pH 7.0 due to the pH-dependence of ATP inhibition ([Trivedi and Danforth, 1966]).

In test [1] the target is T2, PFKL(K315R) (PFKL−pocket) (Homo sapiens, UniProt P17858, K315R).
T2 construct: made in house; host or cells: Sf9 insect cells (baculovirus)
T2 sequence (P17858 1-780 K315R): T1 sequence (P17858 1-780) with K315R
The test is described as follows: Recombinant PFKL−pocket activity assay. Particulars: for EC50: pH 7.5, 3.1 mM ATP, 4 mM F6P, mean ± SEM, read-out: EC50, activation of PFKL−pocket. The class given is biochemical.
Excerpt: as §1, §2, §3

The mark [2] stands for this setting: PFKL wild type, pH 7.5, 225 μM ATP.
Where [3] appears, read: PFKL−pocket, pH 7.5, 225 μM ATP.
Setting [4] is: pH 7.5, 3.1 mM ATP, 4 mM F6P, mean ± SEM, read-out: EC50, activation of PFKL wild type.

By EC50 is commonly meant the concentration at which the effect is half-maximal.

Molecules are shown by their SMILES. Residue numbers refer to the chain shown, from its start. Like-named read-outs stand apart in the source and are kept apart here.

`O=C(CO)[C@@H](O)[C@H](O)[C@H](O)COP(=O)(O)O` [F6P, fructose 6-phosphate]: at PFKL (setting [2]), the “Vmax,F6P” value is 13.28 ± 1.69 micromoles FBP per minute per milligram PFK1 and the “hF6P (Hill coefficient)” value worked out at 3.16 ± 0.89. Further, in test [1] (setting [3]), the “Vmax,F6P” value was 14.68 ± 0.98 micromoles FBP per minute per milligram PFK1 and the “hF6P (Hill coefficient)” value amounted to 3.26 ± 0.48.
In the case of `COc1ccccc1-c1cc2n(n1)Cc1ccc(NC(C)=O)cc1OC2` [LDC7559, reference compound], the EC50 on PFKL (setting [4]) is 66 ± 18.9 nM.
Turning to `CC(=O)Nc1ccc2c(c1)OCc1cc(-c3ccccc3)nn1C2` [NA-5], at PFKL (setting [4]), the concentration for a half-maximal effect (EC50) came out at 19.2 ± 6.79 nM. Besides, in test [1], the “fold change of EC50,NA-5 of PFKL−pocket versus wild-type PFKL” value is ~ 30 fold and the EC50 was 615 ± 138 nM.
Take `CC(=O)Nc1ccc2c(c1)OCc1cc(-c3ccccc3C#CCCCO)nn1C2` [NA-11]: the EC50 is 12 ± 2.73 nM at PFKL (Control (ligand series), pH 7.5, 4.0 mM F6P, 3.1 mM ATP, read-out: EC50, NA-11); 74 ± 20.9 nM at PFKL (pH 7.0, 4.0 mM F6P, 3.1 mM ATP, mean ± s.e.m., read-out: EC50, NA-11); 21.8 ± 6.21 nM at PFKL (pH 7.5 (pH series), 4.0 mM F6P, 3.1 mM ATP, mean ± s.e.m., read-out: EC50, NA-11); 14 ± 2.91 nM at PFKL (setting [4]); 4.11 ± 0.92 nM at PFKL (pH 8.0, 4.0 mM F6P, 3.1 mM ATP, mean ± s.e.m., read-out: EC50, NA-11); 12.3 ± 3.38 nM on PFKL (with 50 μM AMP, pH 7.5, 4.0 mM F6P, 3.1 mM ATP, read-out: EC50, NA-11). The 50% effective concentration (EC50) at PFKL (with 200 μM FBP, pH 7.5, 4.0 mM F6P, 3.1 mM ATP, read-out: EC50, NA-11) was found to be 12 ± 6.99 nM; in test [1], 167 ± 27.8 nM. Moreover, the Vmax is 18.11 ± 1.23 μmoles FBP per min per mg PFK1 at PFKL (NA-11 titration with 50 μM AMP, pH 7.5, 4.0 mM F6P, 3.1 mM ATP); 21.31 ± 2.44 μmoles FBP per min per mg PFK1 on PFKL (NA-11 titration with 200 μM FBP, pH 7.5, 4.0 mM F6P, 3.1 mM ATP); 18.19 ± 1.29 μmoles FBP per min per mg PFK1 at PFKL (NA-11 titration, Control, pH 7.5, 4.0 mM F6P, 3.1 mM ATP).
